This is an account of results in patent US10849985B2, “Method of targeting senescent cells” (Yeda Research and Development Co. Ltd., priority 2015, dated 2020).

One assay deals with cell surface Grp94. In words: Cell-surface Grp94 of mouse embryonic fibroblasts. The format is cell-based. The conditions noted are these: MEFs 14 days after Etoposide treatment compared to growing MEFs. As to the method:
FIGS. 4A-E. Extracellular Grp94 on senescent cells mediate cytotoxicity of innate components in-vitro. (A) Western blot analysis for Grp94/β-Tubulin in Etoposide-treated IMR90 cells 4 days after transfection with siControl or siHSP90B1 (HSP90B1 is a gene coding for Grp94). (B) PrestoBlue viability assay for Etoposide-treated IMR90 4 days after Transfection with siControl or siHSP90B1. (C) Cytotoxicity of NK92 cells in cultures of IMR90 cells treated with siControl or siHSP90B1. NK92 were added for 1 hour at a ratio of 1:3 (D) Crystal Violet staining for IMR90 cells after co-culturing with MM6 monocytes in the presence of GPM1. (E) Quantitative analysis of cell-surface Grp94 of Mouse embryonic fibroblasts (MEFs) 14 days after Etoposide treatment compared to growing MEFs.
The levels of cell surface Grp94 were also examined in mouse embryonic fibroblast cells (MEFs). […] The relatively high correlation between localization of Grp94 in human and mouse cells implies that it may serve as a new marker for senescent cells.

The target of a further assay is T1, cell-surface Grp94 (Homo sapiens, UniProt P14625).
T1 construct: cell-surface Grp94 of live senescent etoposide-treated IMR90 cells after 24 hrs treatment with 10 or 100 μM GPM1; endogenous in cells; host or cells: IMR-90 human fibroblasts (ATCC), made senescent with etoposide
T1 sequence (P14625 22-803): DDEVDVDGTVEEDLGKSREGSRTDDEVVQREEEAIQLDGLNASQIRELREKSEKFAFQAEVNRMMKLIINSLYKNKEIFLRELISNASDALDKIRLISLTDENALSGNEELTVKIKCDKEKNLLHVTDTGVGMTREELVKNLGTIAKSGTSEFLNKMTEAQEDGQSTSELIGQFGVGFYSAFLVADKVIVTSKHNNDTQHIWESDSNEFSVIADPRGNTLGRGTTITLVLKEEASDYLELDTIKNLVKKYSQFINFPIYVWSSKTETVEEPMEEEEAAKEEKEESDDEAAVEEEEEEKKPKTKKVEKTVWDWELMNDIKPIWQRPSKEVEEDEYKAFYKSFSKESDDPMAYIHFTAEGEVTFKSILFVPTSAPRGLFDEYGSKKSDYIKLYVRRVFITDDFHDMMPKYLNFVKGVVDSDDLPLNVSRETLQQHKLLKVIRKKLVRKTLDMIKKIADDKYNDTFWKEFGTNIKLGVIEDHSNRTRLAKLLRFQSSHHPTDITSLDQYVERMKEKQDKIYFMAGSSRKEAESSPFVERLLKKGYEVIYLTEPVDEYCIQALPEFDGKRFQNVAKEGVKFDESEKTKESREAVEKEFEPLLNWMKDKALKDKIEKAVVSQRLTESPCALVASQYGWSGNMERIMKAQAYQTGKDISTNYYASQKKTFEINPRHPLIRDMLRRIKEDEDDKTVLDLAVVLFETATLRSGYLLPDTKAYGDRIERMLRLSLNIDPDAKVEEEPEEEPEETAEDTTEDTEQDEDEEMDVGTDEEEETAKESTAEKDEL
Kind of assay: Flow cytometry of cell-surface Grp94 on live IMR90 cells. The format is cell-based. The conditions noted are these: 3 days after etoposide treatment. From the text:
FIGS. 3A-F. Grp94 translocates to cell-surface of senescent cells. (A) Flow cytometry histogram for the frequency cell-surface Grp94 of live IMR90 cells 0, 3, 7, 14, or 21 days after etoposide treatment. (B) Quantitative analysis of cell-surface Grp94 on live IMR90 cells 0, 3, 7, 14, or 21 days after etoposide treatment. (C) Scheme describing the mechanism of GPM1-mediated blockage of Grp94 translocation to cell-surface. (D) PrestoBlue viability assay for IMR90 growing or senescent Etoposide-treated cells after 24 hrs treatment with 1, 10, or 100 μM GPM1. […] (E) Flow cytometry histogram for the frequency of cell-surface Grp94 of live senescent etoposide-treated IMR90 cells after 24 hrs treatment with 10 or 100 μM GPM1. (F) Quantitative analysis of cell-surface Grp94 on live senescent etoposide-treated IMR90 cells after 24 hrs treatment with 10 or 100 μM GPM1.
IMR-90 cells were gently dissociated from plates using TripLE express reagent (12604-013, Thermo Fisher Scientific), and maintained in cold FACS buffer (PBS containing 1% FCS and 0.1% Sodium Azid) throughout all procedure. […] Cells were analyzed in a SORP-LSRII instrument (BD Biosciences). […] Cells were gated by their size (FSC/SSC), DAPI negative (live cells) and then analyzed for their fluorescence intensity at the wavelength of 647 (cell-surface Grp94 level), using FlowJo v10 software.
Background: A flow cytometer gives signals particle by particle.

`COc1cc([C@@H]2c3cc4c(cc3[C@@H](O[C@@H]3O[C@@H]5CO[C@@H](C)O[C@H]5[C@H](O)[C@H]3O)[C@H]3COC(=O)[C@H]23)OCO4)cc(OC)c1O` [etoposide]: the “cell surface Grp94” value in the assay with cell surface Grp94 is “significant elevation”. Further, the “cell-surface Grp94 levels” value at cell-surface Grp94 is on record as “not elevated”.
